PubChem BioAssay AID256 (DTP/NCI, 2004)
Several values for one entry are separate records, joined by “and”; a condition that tells them apart may be missing. Equal values may be shown once. Toxic doses and inconclusive results are not listed. Rule for the calls: active = survival T/C of 150% or more; inactive = T/C below 125% in these data.

System: CD2F1 mice, L1210 leukemia ip, survival T/C
Assay: NCI In Vivo Anticancer Drug Screen. Data for tumor model L1210 Leukemia (intraperitoneal) in CD2F1 (CDF1) mice
Settings: higher = longer survival
Method in brief: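 Tumor-bearing mice (transplanted tumor) were split into treated and vehicle control groups, and the measured endpoint of each treated group was divided by that of its vehicle controls.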

[1] = endpoint: mean survival time, dose: 100.0 mg/kg/injection, schedule: Q04DX003 (ip), vehicle: saline with Tween-80
[2] = endpoint: mean survival time, dose: 200.0 mg/kg/injection, schedule: Q04DX003 (ip), vehicle: saline with Tween-80
[3] = endpoint: mean survival time, dose: 100.0 mg/kg/injection, schedule: Q01DX009 (ip), vehicle: saline with Tween-80
[4] = endpoint: mean survival time, dose: 200.0 mg/kg/injection, schedule: Q01DX009 (ip), vehicle: saline with Tween-80
[5] = endpoint: mean survival time, dose: 100.0 mg/kg/injection, schedule: Q01DX001 (ip), vehicle: saline with Tween-80
[6] = endpoint: mean survival time, dose: 400.0 mg/kg/injection, schedule: Q04DX003 (ip), vehicle: saline with Tween-80
[7] = endpoint: mean survival time, dose: 25.0 mg/kg/injection, schedule: Q01DX009 (ip), vehicle: saline with Tween-80
[8] = endpoint: mean survival time, dose: 50.0 mg/kg/injection, schedule: Q01DX009 (ip), vehicle: saline with Tween-80
[9] = endpoint: mean survival time, dose: 3.12 mg/kg/injection, schedule: Q01DX009 (ip), vehicle: Klucel (hydroxypropylcellulose) (HPC)
[10] = endpoint: mean survival time, dose: 6.25 mg/kg/injection, schedule: Q01DX009 (ip), vehicle: Klucel (hydroxypropylcellulose) (HPC)
[11] = endpoint: mean survival time, dose: 100.0 mg/kg/injection, schedule: Q04DX003 (ip), vehicle: saline
[12] = endpoint: mean survival time, dose: 200.0 mg/kg/injection, schedule: Q04DX003 (ip), vehicle: saline
[13] = endpoint: mean survival time, dose: 400.0 mg/kg/injection, schedule: Q04DX003 (ip), vehicle: saline

Measured: T/C

Cc1ccc(C2=C(O)C(=O)C(c3ccc(C)cc3)C2=O)cc1 (stereo not drawn)
inactive: [1] 93 % of control | [2] 96 % of control

BrC(Br)(Br)c1ccc2ccccc2n1
inactive: [3] 96 % of control | [4] 94 % of control | endpoint: mean survival time, dose: 400.0 mg/kg/injection, schedule: Q01DX009 (ip), vehicle: saline with Tween-80 102 % of control

c1ccc(/C(N=NC(c2ccccc2)(c2ccccc2)c2ccccc2)=C(/N=NC(c2ccccc2)(c2ccccc2)c2ccccc2)c2ccccc2)cc1
inactive: [5] 91 % of control | endpoint: mean survival time, dose: 200.0 mg/kg/injection, schedule: Q01DX001 (ip), vehicle: saline with Tween-80 101 % of control | endpoint: mean survival time, dose: 400.0 mg/kg/injection, schedule: Q01DX001 (ip), vehicle: saline with Tween-80 89 % of control

COc1ccc(NC(=O)C(Cl)Cl)ccc1=O
inactive: [3] 96 % of control | [1] 97 % of control | [4] 95 % of control | [2] 92 % of control | [6] 98 % of control

CN(N)c1cccc2c1CCCC2
inactive: [7] 106 % of control | endpoint: mean survival time, dose: 25.0 mg/kg/injection, schedule: Q04DX003 (ip), vehicle: saline with Tween-80 97 % of control | [8] 103 % of control | endpoint: mean survival time, dose: 50.0 mg/kg/injection, schedule: Q04DX003 (ip), vehicle: saline with Tween-80 102 % of control | [3] 105 % of control | [1] 93 % of control and 102 % of control

COc1ccccc1NC1=NCCO1
inactive: endpoint: mean survival time, dose: 25.0 mg/kg/injection, schedule: Q04DX002 (ip), vehicle: saline with Tween-80 105 % of control | endpoint: mean survival time, dose: 50.0 mg/kg/injection, schedule: Q04DX002 (ip), vehicle: saline with Tween-80 97 % of control | [5] 90 % of control | endpoint: mean survival time, dose: 100.0 mg/kg/injection, schedule: Q04DX002 (ip), vehicle: saline with Tween-80 94 % of control

COc1cc2c(c(OC)c1OC)-c1ccc(SCc3ccccc3)c(=O)cc1[C@@H](NC(C)=O)CC2
inactive: endpoint: mean survival time, dose: 1.56 mg/kg/injection, schedule: Q01DX009 (ip), vehicle: Klucel (hydroxypropylcellulose) (HPC) 103 % of control | [9] 97 % of control | [10] 112 % of control | endpoint: mean survival time, dose: 12.5 mg/kg/injection, schedule: Q01DX009 (ip), vehicle: Klucel (hydroxypropylcellulose) (HPC) 121 % of control | endpoint: mean survival time, dose: 25.0 mg/kg/injection, schedule: Q01DX009 (ip), vehicle: Klucel (hydroxypropylcellulose) (HPC) 117 % of control

C=CCC1CN(CCC(O)c2ccc(F)cc2)CCC1(OC(=O)CC)c1ccccc1 (stereo not drawn)
inactive: endpoint: mean survival time, dose: 100.0 mg/kg/injection, schedule: Q04DX002 (ip), vehicle: Klucel (hydroxypropylcellulose) (HPC) 93 % of control | endpoint: mean survival time, dose: 200.0 mg/kg/injection, schedule: Q04DX002 (ip), vehicle: Klucel (hydroxypropylcellulose) (HPC) 101 % of control | endpoint: mean survival time, dose: 400.0 mg/kg/injection, schedule: Q04DX002 (ip), vehicle: Klucel (hydroxypropylcellulose) (HPC) 104 % of control

C#CC(OC(=O)Nc1ccccc1)C1OC2OC(C)(C)OC2C2OC(C)(C)OC12 (stereo not drawn)
inactive: [8] 97 % of control | [3] 93 % of control | [4] 97 % of control

N#Cc1c(Cl)cc(C2(OC(=O)c3ccc([N+](=O)[O-])cc3)C3C=CC2CC3)cc1Cl (stereo not drawn)
inactive: endpoint: median survival time, dose: 25.0 mg/kg/injection, schedule: Q04DX002 (ip), vehicle: saline with Tween-80 100 % of control | endpoint: median survival time, dose: 50.0 mg/kg/injection, schedule: Q04DX002 (ip), vehicle: saline with Tween-80 87 % of control | endpoint: median survival time, dose: 100.0 mg/kg/injection, schedule: Q04DX002 (ip), vehicle: saline with Tween-80 100 % of control | endpoint: median survival time, dose: 200.0 mg/kg/injection, schedule: Q04DX002 (ip), vehicle: saline with Tween-80 100 % of control

CCSSCCN
inactive: endpoint: mean survival time, dose: 100.0 mg/kg/injection, schedule: Q01DX009 (ip), vehicle: saline 94 % of control | [11] 93 % of control | endpoint: mean survival time, dose: 200.0 mg/kg/injection, schedule: Q01DX009 (ip), vehicle: saline 93 % of control | [12] 89 % of control | endpoint: mean survival time, dose: 400.0 mg/kg/injection, schedule: Q01DX009 (ip), vehicle: saline 102 % of control | [13] 97 % of control

CCCCN1CCN(CCCC)C1CCC
inactive: [7] 98 % of control | [8] 102 % of control | [3] 96 % of control

CCCCCCCCCC[n+]1cccc(C(N)=O)c1
inactive: endpoint: mean survival time, dose: 5.0 mg/kg/injection, schedule: Q01DX009 (ip), vehicle: saline with Tween-80 97 % of control | endpoint: mean survival time, dose: 10.0 mg/kg/injection, schedule: Q01DX009 (ip), vehicle: saline with Tween-80 97 % of control | endpoint: mean survival time, dose: 20.0 mg/kg/injection, schedule: Q01DX009 (ip), vehicle: saline with Tween-80 100 % of control

CN(C)c1ccc(/C=N/NC(=O)c2ccccc2N)c(Cl)c1
inactive: [3] 87 % of control | [4] 87 % of control

Nc1nc2c(C(=O)N3CCCC3)nnn2c2ccccc12
inactive: endpoint: median survival time, dose: 6.25 mg/kg/injection, schedule: Q01DX009 (ip), vehicle: saline with Tween-80 100 % of control | endpoint: median survival time, dose: 12.5 mg/kg/injection, schedule: Q01DX009 (ip), vehicle: saline with Tween-80 98 % of control | endpoint: median survival time, dose: 25.0 mg/kg/injection, schedule: Q01DX009 (ip), vehicle: saline with Tween-80 97 % of control | endpoint: median survival time, dose: 50.0 mg/kg/injection, schedule: Q01DX009 (ip), vehicle: saline with Tween-80 95 % of control | endpoint: median survival time, dose: 100.0 mg/kg/injection, schedule: Q01DX009 (ip), vehicle: saline with Tween-80 95 % of control

CC(C)SC(C(=O)O)(c1ccccc1)c1ccccc1
inactive: endpoint: mean survival time, dose: 75.0 mg/kg/injection, schedule: Q01DX001 (ip), vehicle: other 100 % of control | endpoint: mean survival time, dose: 150.0 mg/kg/injection, schedule: Q01DX001 (ip), vehicle: other 98 % of control | endpoint: mean survival time, dose: 300.0 mg/kg/injection, schedule: Q01DX001 (ip), vehicle: other 90 % of control

NC1=C(N)C(=O)NC(N)N1 (stereo not drawn)
inactive: endpoint: mean survival time, dose: 100.0 mg/kg/injection, schedule: Q04DX002 (ip), vehicle: saline 102 % of control | endpoint: mean survival time, dose: 200.0 mg/kg/injection, schedule: Q04DX002 (ip), vehicle: saline 102 % of control | endpoint: mean survival time, dose: 400.0 mg/kg/injection, schedule: Q04DX002 (ip), vehicle: saline 100 % of control

Cc1cccc(C)c1OC(=O)Cl
inactive: endpoint: mean survival time, dose: 5.0 mg/kg/injection, schedule: Q01DX001 (ip), vehicle: saline 98 % of control | endpoint: mean survival time, dose: 10.0 mg/kg/injection, schedule: Q01DX001 (ip), vehicle: saline 97 % of control | endpoint: mean survival time, dose: 20.0 mg/kg/injection, schedule: Q01DX001 (ip), vehicle: saline 97 % of control | endpoint: mean survival time, dose: 40.0 mg/kg/injection, schedule: Q01DX001 (ip), vehicle: saline 97 % of control

O=C(O)C(Br)(Br)Br.[Ag]
inactive: [1] 92 % of control | [2] 89 % of control | [6] 97 % of control

CC1=NC(C#N)=C(C#N)N=C(C)C1
inactive: endpoint: mean survival time, dose: 10.0 mg/kg/injection, schedule: Q04DX003 (ip), vehicle: Klucel (hydroxypropylcellulose) (HPC) 102 % of control | endpoint: mean survival time, dose: 20.0 mg/kg/injection, schedule: Q04DX003 (ip), vehicle: Klucel (hydroxypropylcellulose) (HPC) 98 % of control | endpoint: mean survival time, dose: 40.0 mg/kg/injection, schedule: Q04DX003 (ip), vehicle: Klucel (hydroxypropylcellulose) (HPC) 106 % of control

O=C1C(F)=C(F)C(=O)C(F)=C1F
inactive: [9] 97 % of control | [10] 98 % of control

CSc1sc2ccccc2[n+]1C
inactive: endpoint: mean survival time, dose: 25.0 mg/kg/injection, schedule: Q01DX009 (ip), vehicle: saline 100 % of control | endpoint: mean survival time, dose: 50.0 mg/kg/injection, schedule: Q01DX009 (ip), vehicle: saline 110 % of control

CCCC(=O)c1cc(O)c(O)cc1O
inactive: endpoint: mean survival time, dose: 12.5 mg/kg/injection, schedule: Q01DX009 (ip), vehicle: saline with Tween-80 111 % of control | [7] 93 % of control | [8] 97 % of control

O=C(O)CCCc1ccc(Cl)cc1
inactive: [11] 106 % of control | [12] 106 % of control | [13] 98 % of control
